Reference: patent US10807944B2, “HDAC inhibitor compounds and methods of treatment” (priority 2014, dated 2020)
Read-outs that look alike come from different tables or passages of the source.

Experiments:
HepG2 cells [1] = tested on: HepG2 cells
HepG2 cells [2] = experiment: cells; conditions: Homo sapiens
HDAC7 = HDAC7 (Homo sapiens (Human), UniProt Q8WUI4); experiment: HDAC7 in vitro inhibition, dose response; format: biochemical; conditions: Table 1; read-out: Inhibitory Potency (IC50) HDAC 7
HCT116 cells [3] = experiment: Histone acetylation by Western blotting; format: cell-based
MDA-MB-231 cells [4] = conditions: MDA-MB-231 monolayer scratch; UF010 at 1 μM
CDKN1A = experiment: qPCR of CDKN1A encoding p21; format: cell-based; conditions: MDA-MB-231
HDAC8 = HDAC8 (Homo sapiens (Human), UniProt Q9BY41); experiment: HDAC8 in vitro inhibition, dose response; format: biochemical
HDAC3 = HDAC3 (Homo sapiens (Human), UniProt O15379); experiment: HDAC-3 inhibition potency, luminescence readout; format: biochemical; conditions: Table 6, luminescence readout
HDAC10 = HDAC10 (Homo sapiens (Human), UniProt Q969S8); experiment: HDAC10 in vitro inhibition, dose response; format: biochemical; conditions: Table 1; read-out: Inhibitory Potency (IC50) HDAC 10
in vivo = conditions: mouse, plasma, po, 80 mg/kg
HDAC1 [5] = target: T1, HDAC1 (Homo sapiens (Human), UniProt Q13547); experiment: In vitro HDAC1 inhibition of HTS hits (HDAC I/II-Glo reagents); format: biochemical; conditions: HTS follow-up
[6] = Oral tolerability / maximal tolerated dose in mice; conditions: mouse
MDA-MB-468 cells = experiment: Viability of MDA-MB-468 cells, with or without HDAC shRNA; conditions: for IC50: Homo sapiens
HCT116 cells [7] = experiment: H3K18ac after 6 h pulse treatment and drug washout; format: cell-based
[8] = mouse, in vivo, po
HDAC6 = HDAC6 (Homo sapiens (Human), UniProt Q9UBN7); experiment: HDAC6 in vitro inhibition, dose response; format: biochemical
HDAC2 = HDAC2 (Homo sapiens (Human), UniProt Q92769); experiment: HDAC-2 inhibition potency, luminescence readout; format: biochemical; conditions: Table 6, luminescence readout
Description: (§1) Compounds were examined for their HDAC inhibitory activity and their effect on cancer cell viability (MDA-MB-231 cells).

[9] = tested on: NCI-60 panel of cancer cell lines; experiment: NCI-60 panel of cancer cell lines, cell growth; format: cell-based; conditions: all tested cell lines
HDAC1 [10] = target: T1, HDAC1; experiment: HDAC1 in vitro inhibition, dose response; format: biochemical
HDAC1 [11] = target: T1, HDAC1; experiment: HDAC-1 inhibition potency, luminescence readout; format: biochemical; conditions: Table 6, luminescence readout
Description: as §1

MDA-MB-231 cells [12] = experiment: Cancer cell viability (CellTiter-Glo); format: cell-based; conditions: Homo sapiens, MDA-MB-231, read-out: Cancer cell (MDA-MB-231) killing IC50
MDA-MB-231 cells [13] = experiment: Cell cycle analysis by FACS; format: cell-based; conditions: MDA-MB-231, 24 h, dose-dependent
MDA-MB-231 cells [14] = experiment: Global gene expression (Affymetrix Human Transcriptome Array 2.0) with Ingenuity Pathway Analysis; format: cell-based; conditions: 24 h; for Predicated activation state, Biological Functions / Predicated activation state, Upstream Regulators: 1 μM
HDAC5 = HDAC5 (Homo sapiens (Human), UniProt Q9UQL6); experiment: HDAC5 in vitro inhibition, dose response; format: biochemical; conditions: Table 1; read-out: Inhibitory Potency (IC50) HDAC 5
HDAC9 = HDAC9 (Homo sapiens (Human), UniProt Q9UKV0); experiment: HDAC9 in vitro inhibition, dose response; format: biochemical; conditions: Table 1; read-out: Inhibitory Potency (IC50) HDAC 9
HCT116 and A549 cells = experiment: Acetylation of non-histone proteins by Western blotting; format: cell-based
HDAC4 = HDAC4 (Homo sapiens (Human), UniProt P56524); experiment: HDAC4 in vitro inhibition, dose response; format: biochemical; conditions: Table 1; read-out: Inhibitory Potency (IC50) HDAC 4
HDAC11 = HDAC11 (Homo sapiens (Human), UniProt Q96DB2); experiment: HDAC11 in vitro inhibition, dose response; format: biochemical; conditions: Table 1; read-out: Inhibitory Potency (IC50) HDAC 11

T1 sequence (Q13547 whole entry): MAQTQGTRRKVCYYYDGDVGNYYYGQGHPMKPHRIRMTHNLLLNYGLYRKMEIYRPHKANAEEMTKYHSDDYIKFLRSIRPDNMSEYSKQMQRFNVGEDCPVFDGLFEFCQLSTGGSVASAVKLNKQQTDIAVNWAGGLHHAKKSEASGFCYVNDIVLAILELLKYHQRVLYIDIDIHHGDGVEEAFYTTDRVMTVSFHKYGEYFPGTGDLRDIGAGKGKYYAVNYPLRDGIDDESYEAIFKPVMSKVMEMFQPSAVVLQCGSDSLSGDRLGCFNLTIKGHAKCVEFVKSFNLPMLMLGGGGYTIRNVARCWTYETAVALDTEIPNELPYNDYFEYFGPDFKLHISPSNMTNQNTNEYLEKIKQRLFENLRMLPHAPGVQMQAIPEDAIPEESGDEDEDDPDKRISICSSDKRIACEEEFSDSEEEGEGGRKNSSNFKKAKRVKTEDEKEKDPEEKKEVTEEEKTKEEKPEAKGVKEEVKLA
Chain of HDAC6 (Q9UBN7 whole entry): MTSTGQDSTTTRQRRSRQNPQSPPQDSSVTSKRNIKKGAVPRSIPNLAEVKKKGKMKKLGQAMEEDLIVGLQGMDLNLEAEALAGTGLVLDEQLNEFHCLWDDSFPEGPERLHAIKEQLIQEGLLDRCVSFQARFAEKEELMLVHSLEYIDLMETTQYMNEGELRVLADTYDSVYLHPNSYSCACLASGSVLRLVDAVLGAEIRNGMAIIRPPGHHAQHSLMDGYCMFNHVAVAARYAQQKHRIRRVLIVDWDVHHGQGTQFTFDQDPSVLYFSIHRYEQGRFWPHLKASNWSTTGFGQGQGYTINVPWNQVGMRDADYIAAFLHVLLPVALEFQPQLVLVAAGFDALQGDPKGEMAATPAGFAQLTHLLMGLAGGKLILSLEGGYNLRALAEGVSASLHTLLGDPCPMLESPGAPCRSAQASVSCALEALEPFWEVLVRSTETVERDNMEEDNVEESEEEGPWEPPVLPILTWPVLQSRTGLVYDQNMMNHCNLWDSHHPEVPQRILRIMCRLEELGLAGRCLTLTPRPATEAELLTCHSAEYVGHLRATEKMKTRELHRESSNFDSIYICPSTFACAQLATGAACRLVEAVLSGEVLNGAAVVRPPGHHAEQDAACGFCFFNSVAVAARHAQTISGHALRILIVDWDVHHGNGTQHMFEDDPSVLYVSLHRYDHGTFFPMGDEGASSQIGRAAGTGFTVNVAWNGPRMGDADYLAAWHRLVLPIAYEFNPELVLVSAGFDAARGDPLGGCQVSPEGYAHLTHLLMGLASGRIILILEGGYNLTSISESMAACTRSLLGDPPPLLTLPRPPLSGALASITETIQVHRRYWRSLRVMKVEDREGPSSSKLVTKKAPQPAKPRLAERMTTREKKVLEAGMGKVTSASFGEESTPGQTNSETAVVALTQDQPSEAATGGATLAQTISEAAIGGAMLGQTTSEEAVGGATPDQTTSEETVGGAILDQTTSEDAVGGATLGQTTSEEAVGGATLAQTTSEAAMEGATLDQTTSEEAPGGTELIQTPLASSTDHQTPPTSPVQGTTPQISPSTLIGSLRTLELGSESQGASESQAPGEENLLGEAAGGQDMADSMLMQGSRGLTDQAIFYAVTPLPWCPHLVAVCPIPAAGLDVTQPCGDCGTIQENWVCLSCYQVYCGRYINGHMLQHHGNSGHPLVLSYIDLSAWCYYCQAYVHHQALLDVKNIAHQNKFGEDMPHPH
Chain of HDAC8 (Q9BY41 whole entry): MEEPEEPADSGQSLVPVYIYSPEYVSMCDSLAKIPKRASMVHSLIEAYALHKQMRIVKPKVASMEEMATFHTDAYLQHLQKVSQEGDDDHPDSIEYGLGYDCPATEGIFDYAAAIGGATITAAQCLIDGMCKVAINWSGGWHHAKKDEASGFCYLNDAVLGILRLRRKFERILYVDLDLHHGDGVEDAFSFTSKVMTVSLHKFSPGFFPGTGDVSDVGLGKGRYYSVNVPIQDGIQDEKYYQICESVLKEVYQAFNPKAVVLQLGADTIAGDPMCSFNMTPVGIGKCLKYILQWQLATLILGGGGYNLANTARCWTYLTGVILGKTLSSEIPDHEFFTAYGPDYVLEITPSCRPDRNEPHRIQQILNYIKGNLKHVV
Chain of HDAC5 (Q9UQL6 whole entry): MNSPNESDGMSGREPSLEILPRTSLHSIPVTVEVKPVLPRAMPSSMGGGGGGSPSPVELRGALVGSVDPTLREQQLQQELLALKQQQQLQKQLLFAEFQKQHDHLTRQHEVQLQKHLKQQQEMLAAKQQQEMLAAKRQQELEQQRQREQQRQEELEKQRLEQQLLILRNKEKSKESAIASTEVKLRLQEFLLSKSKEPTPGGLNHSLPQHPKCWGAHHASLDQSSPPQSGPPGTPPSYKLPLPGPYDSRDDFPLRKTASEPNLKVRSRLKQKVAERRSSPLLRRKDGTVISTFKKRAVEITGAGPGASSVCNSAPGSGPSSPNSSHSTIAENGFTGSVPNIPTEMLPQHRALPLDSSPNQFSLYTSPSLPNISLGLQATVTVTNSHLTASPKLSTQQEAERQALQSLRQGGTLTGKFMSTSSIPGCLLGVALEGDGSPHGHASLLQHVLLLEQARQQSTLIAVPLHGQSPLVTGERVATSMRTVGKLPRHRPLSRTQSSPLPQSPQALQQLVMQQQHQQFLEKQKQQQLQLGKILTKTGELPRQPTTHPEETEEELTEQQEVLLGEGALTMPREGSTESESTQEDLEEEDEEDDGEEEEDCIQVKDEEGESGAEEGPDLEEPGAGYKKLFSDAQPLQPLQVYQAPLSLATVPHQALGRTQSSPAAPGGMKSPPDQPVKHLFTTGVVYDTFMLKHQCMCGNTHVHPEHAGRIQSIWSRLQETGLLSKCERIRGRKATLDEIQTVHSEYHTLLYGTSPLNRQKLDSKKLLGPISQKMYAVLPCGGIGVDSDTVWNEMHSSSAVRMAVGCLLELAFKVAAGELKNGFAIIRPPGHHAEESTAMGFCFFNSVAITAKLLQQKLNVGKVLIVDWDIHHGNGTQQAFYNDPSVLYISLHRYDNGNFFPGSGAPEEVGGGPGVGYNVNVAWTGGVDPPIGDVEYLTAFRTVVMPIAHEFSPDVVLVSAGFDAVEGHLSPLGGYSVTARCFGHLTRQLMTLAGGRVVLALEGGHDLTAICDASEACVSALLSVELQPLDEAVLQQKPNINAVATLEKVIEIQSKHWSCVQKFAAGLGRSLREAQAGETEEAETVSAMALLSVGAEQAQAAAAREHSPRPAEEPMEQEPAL
Chain of HDAC9 (Q9UKV0 whole entry): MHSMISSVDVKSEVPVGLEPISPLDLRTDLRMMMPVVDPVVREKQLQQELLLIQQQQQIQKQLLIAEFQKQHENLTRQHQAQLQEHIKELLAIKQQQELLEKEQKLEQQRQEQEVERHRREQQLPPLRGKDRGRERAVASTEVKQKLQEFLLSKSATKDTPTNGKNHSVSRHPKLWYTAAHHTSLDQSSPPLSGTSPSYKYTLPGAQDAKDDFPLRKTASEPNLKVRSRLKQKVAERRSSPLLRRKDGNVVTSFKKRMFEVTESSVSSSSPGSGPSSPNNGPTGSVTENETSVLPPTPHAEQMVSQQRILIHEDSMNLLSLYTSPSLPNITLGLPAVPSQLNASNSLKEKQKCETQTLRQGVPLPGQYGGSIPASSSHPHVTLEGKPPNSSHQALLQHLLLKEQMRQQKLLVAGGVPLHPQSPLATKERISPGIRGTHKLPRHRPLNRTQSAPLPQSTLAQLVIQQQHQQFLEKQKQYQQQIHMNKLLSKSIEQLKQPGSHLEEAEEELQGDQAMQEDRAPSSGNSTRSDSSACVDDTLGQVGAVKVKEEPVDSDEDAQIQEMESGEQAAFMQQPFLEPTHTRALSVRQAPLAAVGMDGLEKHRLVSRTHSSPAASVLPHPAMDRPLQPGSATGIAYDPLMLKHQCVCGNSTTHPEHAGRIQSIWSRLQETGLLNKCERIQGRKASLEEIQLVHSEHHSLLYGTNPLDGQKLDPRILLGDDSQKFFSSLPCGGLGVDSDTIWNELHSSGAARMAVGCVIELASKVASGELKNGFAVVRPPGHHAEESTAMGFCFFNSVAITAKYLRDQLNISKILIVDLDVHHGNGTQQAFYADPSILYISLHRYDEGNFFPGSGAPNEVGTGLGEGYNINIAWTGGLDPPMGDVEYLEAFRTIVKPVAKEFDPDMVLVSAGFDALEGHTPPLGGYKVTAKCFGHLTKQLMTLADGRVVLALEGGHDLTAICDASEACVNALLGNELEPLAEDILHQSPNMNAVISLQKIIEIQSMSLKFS
Chain of HDAC3 (O15379 whole entry): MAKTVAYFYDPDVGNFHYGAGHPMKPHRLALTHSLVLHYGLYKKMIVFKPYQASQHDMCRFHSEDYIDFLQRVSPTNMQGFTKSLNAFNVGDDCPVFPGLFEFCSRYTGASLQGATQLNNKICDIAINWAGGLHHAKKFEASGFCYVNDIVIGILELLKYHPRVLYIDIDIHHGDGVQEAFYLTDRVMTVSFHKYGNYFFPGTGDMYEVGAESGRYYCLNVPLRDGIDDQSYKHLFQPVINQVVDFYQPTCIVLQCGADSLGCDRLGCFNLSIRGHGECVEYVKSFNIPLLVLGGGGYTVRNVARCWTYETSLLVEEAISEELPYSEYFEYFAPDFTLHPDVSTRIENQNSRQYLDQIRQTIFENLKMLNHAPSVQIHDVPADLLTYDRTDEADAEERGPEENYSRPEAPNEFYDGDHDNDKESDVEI
Chain of HDAC3 (Q9Y618 395-489 partner): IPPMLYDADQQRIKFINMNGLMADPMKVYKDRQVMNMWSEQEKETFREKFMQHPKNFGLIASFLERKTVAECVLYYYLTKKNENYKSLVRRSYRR

CCCCNNC(=O)c1ccc(Br)cc1 [UF010, 4-bromo-N′-butylbenzohydrazide]
reduction of cytotoxic potency by HDAC2 shRNA expression (HepG2 cells [1]): about 2 fold
IC50 (HepG2 cells [2]; HepG2, read-out: IC50 Control): 4.6 µM
IC50 (HepG2 cells [2]; HepG2, read-out: IC50 HDAC1 shRNA): 5.9 µM
IC50 (HepG2 cells [2]; HepG2, read-out: IC50 HDAC2 shRNA): 10.9 µM
IC50 (HepG2 cells [2]; HepG2, read-out: IC50 HDAC3 shRNA): 1.3 µM
IC50 (HDAC7): > 100 µM
inhibition of cellular HDACs (H4K5ac, H3K18ac) (HCT116 cells [3]; HCT116, 0.5 μM, 24 h (FIG. 1B)): potent inhibition of cellular HDACs
accumulation of acetylated histones (HCT116 cells [3]; HCT116, 1 h exposure, TSA 0.2 μM, others 2 μM (FIG. 1A)): consistently induced the accumulation of acetylated histones at all sites examined
cell migration to the denuded areas (MDA-MB-231 cells [4]): markedly slowed migration
CDKN1A (p21) expression by quantitative real-time PCR (CDKN1A): activation of CDKN1A
IC50 (HDAC8; Table 1, read-out: Inhibitory Potency (IC50) HDAC 8): 1.5 µM
IC50 (HDAC8; Table 2, read-out: HDAC 8 IC50): 1.5 µM
IC50 (HDAC3): 0.19 µM
IC50 (HDAC10): 15.3 µM
AUC (in vivo): 6.07 µM·h
Cmax (in vivo): 5.95 µM
Tmax (in vivo): 15 min
half-life (in vivo): 74.4 min
potency of HDAC1 inhibition in vitro (HDAC1 [5]): < 10 µM
MTD ([6]; in vivo, po, 80 mg/kg): > 80 mg/kg
MTD ([6]; oral once daily): >80 mg/kg
IC50 (MDA-MB-468 cells; MDA-MB-468, read-out: IC50 Control): 16.1 µM
IC50 (MDA-MB-468 cells; MDA-MB-468, read-out: IC50 HDAC2 shRNA): 32.8 µM
reduction of cytotoxic potency by HDAC2 shRNA expression (MDA-MB-468 cells; MDA-MB-468): about 2 fold
time at which histone acetylation (H3K18ac) was induced (HCT116 cells [7]; HCT116, 6 h pulse exposure): ≤ 6 h
time up to which induced acetylation was maintained (HCT116 cells [7]; HCT116, 6 h pulse then drug washout, time after drug addition): up to 96 h
mode of HDAC inhibition (on/off) (HCT116 cells [7]; HCT116, washout experiment): fast-on but slow-off
abnormal physical or mental behaviors [8]: No signs
IC50 (HDAC6; Table 1, read-out: Inhibitory Potency (IC50) HDAC 6): 9.1 µM
IC50 (HDAC6; Table 2, read-out: HDAC 6 IC50): 9.1 µM
IC50 (HDAC2): 1.33 µM
inhibition of proliferation, NCI-60 panel [9]: inhibited proliferation of all tested cell lines
IC50 (HDAC1 [10]; Table 1, read-out: Inhibitory Potency (IC50) HDAC 1): 0.5 µM
IC50 (HDAC1 [10]; Table 2, read-out: HDAC 1 IC50): 0.5 µM
IC50 (HDAC1 [11]): 0.46 µM
IC50 (MDA-MB-231 cells [12]): 31 µM
cell cycle effect (MDA-MB-231 cells [13]): mainly blocked G1/S transition
Predicated activation state, Biological Functions (MDA-MB-231 cells [14]; Apoptosis): Activated
Predicated activation state, Upstream Regulators (MDA-MB-231 cells [14]; Butyric acid): Activated
Predicated activation state, Biological Functions (MDA-MB-231 cells [14]; Cell cycle progression): Suppressed
Predicated activation state, Biological Functions (MDA-MB-231 cells [14]; Cell survival): Suppressed
Predicated activation state, Upstream Regulators (MDA-MB-231 cells [14]; Cisplatin): Activated
Predicated activation state, Upstream Regulators (MDA-MB-231 cells [14]; ERK1/2): Activated
Predicated activation state, Upstream Regulators (MDA-MB-231 cells [14]; HDAC1): Suppressed
Predicated activation state, Upstream Regulators (MDA-MB-231 cells [14]; HDAC2): Suppressed
Predicated activation state, Upstream Regulators (MDA-MB-231 cells [14]; KRAS): Suppressed
number of genes downregulated by […] (MDA-MB-231 cells [14]; MDA-MB-231, 1 μM): 68
number of genes upregulated by […] (MDA-MB-231 cells [14]; MDA-MB-231, 1 μM): 115
Predicated activation state, Upstream Regulators (MDA-MB-231 cells [14]; MYCN): Suppressed
Predicated activation state, Upstream Regulators (MDA-MB-231 cells [14]; Myc): Suppressed
Predicated activation state, Biological Functions (MDA-MB-231 cells [14]; Necrosis): Activated
Predicated activation state, Biological Functions (MDA-MB-231 cells [14]; Proliferation of cells): Suppressed
Predicated activation state, Upstream Regulators (MDA-MB-231 cells [14]; Rb1): Activated
Predicated activation state, Biological Functions (MDA-MB-231 cells [14]; Repair of DNA): Suppressed
Predicated activation state, Upstream Regulators (MDA-MB-231 cells [14]; Romidepsin): Activated
Predicated activation state, Upstream Regulators (MDA-MB-231 cells [14]; TP53): Activated
Predicated activation state, Biological Functions (MDA-MB-231 cells [14]; Transcription of RNA): Suppressed
Predicated activation state, Upstream Regulators (MDA-MB-231 cells [14]; Tributyrin (butyrate)): Activated
Predicated activation state, Upstream Regulators (MDA-MB-231 cells [14]; Trichostatin A): Activated
Predicated activation state, Upstream Regulators (MDA-MB-231 cells [14]; fulvestrant): Activated
IC50 (HDAC5): > 100 µM
IC50 (HDAC9): > 100 µM
α-tubulin acetylation (HCT116 and A549 cells; HCT116 and A549, 1 h, TSA 0.2 μM, UF010 2 μM): little to no effect
accumulation of acetylated p53 (HCT116 and A549 cells; HCT116 and A549, after exposure to etoposide): induced accumulation of acetylated p53
p53 stabilization (HCT116 and A549 cells; with or without etoposide treatment): notably stabilized p53
IC50 (HDAC4): > 100 µM
IC50 (HDAC11): 44.5 µM
